Test results from patent publication US8822530B2, “Sulfur derivatives as chemokine receptor modulators” (Allergan, Inc., priority 2010, dated 2014).

Each molecule was assayed against T1, CCR2 receptor (Homo sapiens, UniProt P41597) (assay: Calcium activity assay on FLIPR Tetra in HEK-Gqi5 cells stably expressing CCR2).
T1 construct: expressed in transfected cells
Assay type: cell-based
Procedure: HEK-Gqi5 cells stably expressing CCR2 were cultured in DMEM high glucose, 10% FBS, 1% PSA, 400 μg/ml geneticin and 50 μg/ml hygromycin. Appropriate positive control chemokines (MCP-1, MIP1A or RANTES) was used as the positive control agonist for screening compound-induced calcium activity assayed on the FLIPR^Tetra. The drug plates were prepared in 384-well microplates using the EP3 and the MultiPROBE robotic liquid handling systems. Compounds were synthesized and tested for CCR2 activity.

T1 sequence (P41597 whole entry): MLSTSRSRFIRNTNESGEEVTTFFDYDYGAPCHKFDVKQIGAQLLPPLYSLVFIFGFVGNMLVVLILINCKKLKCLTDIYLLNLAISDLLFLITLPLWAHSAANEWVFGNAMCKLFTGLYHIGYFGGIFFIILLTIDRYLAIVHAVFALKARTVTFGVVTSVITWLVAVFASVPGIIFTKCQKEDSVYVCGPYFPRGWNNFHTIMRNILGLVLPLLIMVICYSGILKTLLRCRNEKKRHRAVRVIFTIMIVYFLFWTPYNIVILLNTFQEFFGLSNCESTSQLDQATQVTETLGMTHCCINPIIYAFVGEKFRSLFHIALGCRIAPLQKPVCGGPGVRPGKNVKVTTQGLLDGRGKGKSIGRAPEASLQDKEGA

Point of comparison: `O=C(NCCN1CCCC1)c1ccc(C[S+]([O-])c2ccc(Cl)cc2NS(=O)(=O)c2ccc(Cl)c(C(F)(F)F)c2)cc1` (stereo not drawn) [4-({[4-chloro-2-({[4-chloro-3-(trifluoromethyl)phenyl]sulfonyl}amino)phenyl]sulfinyl}methyl)-N-[2-(pyrrolidin-1-yl)ethyl]benzamide], “CCR2 % ANTAGONISM” value 85%. Against it:
- O=C(O)CC[S+]([O-])c1ccc(Cl)cc1NS(=O)(=O)c1ccc(Cl)cc1F (stereo not drawn) [3-[(4-chloro-2-{[(4-chloro-2-fluorophenyl)sulfonyl]amino}phenyl)sulfinyl]propanoic acid] — lower, 83%
- CCN(C)C(=O)CCS(=O)(=O)c1ccc(Cl)cc1NS(=O)(=O)c1ccc(Cl)cc1F [3-[(4-chloro-2-{[(4-chloro-2-fluorophenyl)sulfonyl]amino}phenyl)sulfonyl]-N-ethyl-N-methylpropanamide] — higher, 87%
- O=C(O)CCS(=O)(=O)c1ccc(Cl)cc1NS(=O)(=O)c1ccc(Cl)cc1F [3-[(4-chloro-2-{[(4-chloro-2-fluorophenyl)sulfonyl]amino}phenyl)sulfonyl]propanoic acid] — higher, 90%
- CCN(CC)C(=O)CC[S+]([O-])c1ccc(Cl)cc1NS(=O)(=O)c1ccc(Cl)c(C(F)(F)F)c1 (stereo not drawn) [3-{[4-chloro-2-({[4-chloro-3-(trifluoromethyl)phenyl]sulfonyl}amino)phenyl]sulfinyl}-N,N-diethylpropanamide] — lower, 56%
- CCN(CC)C(=O)CCS(=O)(=O)c1ccc(Cl)cc1NS(=O)(=O)c1ccc(Cl)c(C(F)(F)F)c1 [3-{[4-chloro-2-({[4-chloro-3-(trifluoromethyl)phenyl]sulfonyl}amino)phenyl]sulfonyl}-N,N-diethylpropanamide] — lower, 61%
- O=C(NCC[N+]1([O-])CCCC1)c1ccc(CSc2ccc(Cl)cc2NS(=O)(=O)c2ccc(Cl)c(C(F)(F)F)c2)cc1 [4-({[4-chloro-2-({[4-chloro-3-(trifluoromethyl)phenyl]sulfonyl}amino)phenyl]sulfanyl}methyl)-N-[2-(1-oxidopyrrolidin-1-yl)ethyl]benzamide] — lower, 31%
- O=C(NCCN1CCCC1)c1ccc(CSc2ccc(Cl)cc2NS(=O)(=O)c2ccc(Cl)c(C(F)(F)F)c2)cc1 [4-({[4-chloro-2-({[4-chloro-3-(trifluoromethyl)phenyl]sulfonyl}amino)phenyl]sulfanyl}methyl)-N-[2-(pyrrolidin-1-yl)ethyl]benzamide] — lower, 75%
- O=C(O)c1ccc(CSc2ccc(Cl)cc2NS(=O)(=O)c2ccc(Cl)c(C(F)(F)F)c2)cc1 [4-({[4-chloro-2-({[4-chloro-3-(trifluoromethyl)phenyl]sulfonyl}amino)phenyl]sulfanyl}methyl)benzoic acid] — higher, 102%
- O=C(O)c1ccc(C[S+]([O-])c2ccc(Cl)cc2NS(=O)(=O)c2ccc(Cl)c(C(F)(F)F)c2)cc1 (stereo not drawn) [4-({[4-chloro-2-({[4-chloro-3-(trifluoromethyl)phenyl]sulfonyl}amino)phenyl]sulfinyl}methyl)benzoic acid] — lower, 23%
- O=C(CCSc1ccc(Cl)cc1NS(=O)(=O)c1ccc(Cl)c(C(F)(F)F)c1)N1CCCC1 [4-chloro-N-(5-chloro-2-{[3-oxo-3-(pyrrolidin-1-yl)propyl]sulfanyl}phenyl)-3-(trifluoromethyl)benzenesulfonamide] — lower, 60%
- O=C(CC[S+]([O-])c1ccc(Cl)cc1NS(=O)(=O)c1ccc(Cl)c(C(F)(F)F)c1)N1CCCC1 (stereo not drawn) [4-chloro-N-(5-chloro-2-{[3-oxo-3-(pyrrolidin-1-yl)propyl]sulfinyl}phenyl)-3-(trifluoromethyl)benzenesulfonamide] — lower, 72%
- O=C(CCS(=O)(=O)c1ccc(Cl)cc1NS(=O)(=O)c1ccc(Cl)c(C(F)(F)F)c1)N1CCCC1 [4-chloro-N-(5-chloro-2-{[3-oxo-3-(pyrrolidin-1-yl)propyl]sulfonyl}phenyl)-3-(trifluoromethyl)benzenesulfonamide] — lower, 58%
- O=C(O)CSc1ccc(Cl)cc1NS(=O)(=O)c1cc2ccccc2o1 [({2-[(1-benzofuran-2-ylsulfonyl)amino]-4-chlorophenyl}sulfanyl)acetic acid] — higher, 95%
- O=C(O)CNC(=O)c1ccc(CSc2ccc(Cl)cc2NS(=O)(=O)c2ccc(Cl)c(C(F)(F)F)c2)cc1 [({[4-({[4-chloro-2-({[4-chloro-3-(trifluoromethyl)phenyl]sulfonyl}amino)phenyl]sulfanyl}methyl)phenyl]carbonyl}amino)acetic acid] — lower, 75%
- O=C(O)CNC(=O)c1ccc(C[S+]([O-])c2ccc(Cl)cc2NS(=O)(=O)c2ccc(Cl)c(C(F)(F)F)c2)cc1 (stereo not drawn) [({[4-({[4-chloro-2-({[4-chloro-3-(trifluoromethyl)phenyl]sulfonyl}amino)phenyl]sulfinyl}methyl)phenyl]carbonyl}amino)acetic acid] — lower, 24%
- CC(=O)Nc1cccc(CSc2ccc(Cl)cc2N(C(C)=O)S(=O)(=O)c2cc3ccccc3o2)c1 [N-(2-{[3-(acetylamino)benzyl]sulfanyl}-5-chlorophenyl)-N-(1-benzofuran-2-ylsulfonyl)acetamide] — lower, 73%
- N#Cc1ccc(NS(=O)(=O)c2cc3ccccc3o2)c(SCc2ccccc2)c1 [N-[2-(benzylsulfanyl)-4-cyanophenyl]-1-benzofuran-2-sulfonamide] — lower, 79%
- O=S(=O)(Nc1cc(Cl)ccc1SCc1ccccc1)c1ccc(Cl)c(C(F)(F)F)c1 [N-[2-(benzylsulfanyl)-5-chlorophenyl]-4-chloro-3-(trifluoromethyl)benzenesulfonamide] — lower, 68%
- N#Cc1ccc(NS(=O)(=O)c2cc3ccccc3o2)c([S+]([O-])Cc2ccccc2)c1 (stereo not drawn) [N-[2-(benzylsulfinyl)-4-cyanophenyl]-1-benzofuran-2-sulfonamide] — higher, 94%
- O=S(=O)(Nc1cc(Cl)ccc1[S+]([O-])Cc1ccccc1)c1ccc(Cl)c(C(F)(F)F)c1 (stereo not drawn) [N-[2-(benzylsulfinyl)-5-chlorophenyl]-4-chloro-3-(trifluoromethyl)benzenesulfonamide] — lower, 77%
- N#Cc1ccc(NS(=O)(=O)c2cc3ccccc3o2)c(S(=O)(=O)Cc2ccccc2)c1 [N-[2-(benzylsulfonyl)-4-cyanophenyl]-1-benzofuran-2-sulfonamide] — higher, 96%
- O=S(=O)(Cc1ccccc1)c1ccc(Cl)cc1NS(=O)(=O)c1ccc(Cl)c(C(F)(F)F)c1 [N-[2-(benzylsulfonyl)-5-chlorophenyl]-4-chloro-3-(trifluoromethyl)benzenesulfonamide] — lower, 71%
- CS(=O)(=O)Nc1cccc(CSc2ccc(Cl)cc2NS(=O)(=O)c2cc3ccccc3o2)c1 [N-[5-chloro-2-({3-[(methylsulfonyl)amino]benzyl}sulfanyl)phenyl]-1-benzofuran-2-sulfonamide] — higher, 90%
- CS(=O)(=O)Nc1cccc(C[S+]([O-])c2ccc(Cl)cc2NS(=O)(=O)c2cc3ccccc3o2)c1 (stereo not drawn) [N-[5-chloro-2-({3-[(methylsulfonyl)amino]benzyl}sulfinyl)phenyl]-1-benzofuran-2-sulfonamide] — lower, 77%
- CS(=O)(=O)Nc1cccc(CS(=O)(=O)c2ccc(Cl)cc2NS(=O)(=O)c2cc3ccccc3o2)c1 [N-[5-chloro-2-({3-[(methylsulfonyl)amino]benzyl}sulfonyl)phenyl]-1-benzofuran-2-sulfonamide] — higher, 91%
- O=C1CCc2cc(NS(=O)(=O)c3cc4ccccc4o3)c([S+]([O-])Cc3ccccc3)cc21 (stereo not drawn) [N-[6-(benzylsulfinyl)-1-oxo-2,3-dihydro-1H-inden-5-yl]-1-benzofuran-2-sulfonamide] — lower, 73%
- O=C1CCc2cc(NS(=O)(=O)c3cc4ccccc4o3)c(S(=O)(=O)Cc3ccccc3)cc21 [N-[6-(benzylsulfonyl)-1-oxo-2,3-dihydro-1H-inden-5-yl]-1-benzofuran-2-sulfonamide] — lower, 45%
- CC(=O)Nc1cccc(CSc2ccc(Cl)cc2NS(=O)(=O)c2cc3ccccc3o2)c1 [N-{3-[({2-[(1-benzofuran-2-ylsulfonyl)amino]-4-chlorophenyl}sulfanyl)methyl]phenyl}acetamide] — higher, 96%
- CC(=O)Nc1cccc(C[S+]([O-])c2ccc(Cl)cc2NS(=O)(=O)c2cc3ccccc3o2)c1 (stereo not drawn) [N-{3-[({2-[(1-benzofuran-2-ylsulfonyl)amino]-4-chlorophenyl}sulfinyl)methyl]phenyl}acetamide] — higher, 95%
- CC(=O)Nc1cccc(CS(=O)(=O)c2ccc(Cl)cc2NS(=O)(=O)c2cc3ccccc3o2)c1 [N-{3-[({2-[(1-benzofuran-2-ylsulfonyl)amino]-4-chlorophenyl}sulfonyl)methyl]phenyl}acetamide] — higher, 100%

Point of comparison: `O=C(O)CSc1ccc(Cl)cc1NS(=O)(=O)c1cc2ccccc2o1` [({2-[(1-benzofuran-2-ylsulfonyl)amino]-4-chlorophenyl}sulfanyl)acetic acid], IC50 0.484 µM. Against it:
- CCN(C)C(=O)CCS(=O)(=O)c1ccc(Cl)cc1NS(=O)(=O)c1ccc(Cl)cc1F [3-[(4-chloro-2-{[(4-chloro-2-fluorophenyl)sulfonyl]amino}phenyl)sulfonyl]-N-ethyl-N-methylpropanamide] — 4.7-fold higher, 2.26 µM
- CCN(CC)C(=O)CC[S+]([O-])c1ccc(Cl)cc1NS(=O)(=O)c1ccc(Cl)c(C(F)(F)F)c1 (stereo not drawn) [3-{[4-chloro-2-({[4-chloro-3-(trifluoromethyl)phenyl]sulfonyl}amino)phenyl]sulfinyl}-N,N-diethylpropanamide] — 3.5-fold higher, 1.69 µM
- CCN(CC)C(=O)CCS(=O)(=O)c1ccc(Cl)cc1NS(=O)(=O)c1ccc(Cl)c(C(F)(F)F)c1 [3-{[4-chloro-2-({[4-chloro-3-(trifluoromethyl)phenyl]sulfonyl}amino)phenyl]sulfonyl}-N,N-diethylpropanamide] — 3.8-fold higher, 1.86 µM
- O=C(NCCN1CCCC1)c1ccc(CSc2ccc(Cl)cc2NS(=O)(=O)c2ccc(Cl)c(C(F)(F)F)c2)cc1 [4-({[4-chloro-2-({[4-chloro-3-(trifluoromethyl)phenyl]sulfonyl}amino)phenyl]sulfanyl}methyl)-N-[2-(pyrrolidin-1-yl)ethyl]benzamide] — 4.8-fold higher, 2.32 µM
- O=C(O)c1ccc(CSc2ccc(Cl)cc2NS(=O)(=O)c2ccc(Cl)c(C(F)(F)F)c2)cc1 [4-({[4-chloro-2-({[4-chloro-3-(trifluoromethyl)phenyl]sulfonyl}amino)phenyl]sulfanyl}methyl)benzoic acid] — 1.9-fold lower, 0.255 µM
- O=C(NCCN1CCCC1)c1ccc(C[S+]([O-])c2ccc(Cl)cc2NS(=O)(=O)c2ccc(Cl)c(C(F)(F)F)c2)cc1 (stereo not drawn) [4-({[4-chloro-2-({[4-chloro-3-(trifluoromethyl)phenyl]sulfonyl}amino)phenyl]sulfinyl}methyl)-N-[2-(pyrrolidin-1-yl)ethyl]benzamide] — 3-fold higher, 1.43 µM
- O=C(O)c1ccc(C[S+]([O-])c2ccc(Cl)cc2NS(=O)(=O)c2ccc(Cl)c(C(F)(F)F)c2)cc1 (stereo not drawn) [4-({[4-chloro-2-({[4-chloro-3-(trifluoromethyl)phenyl]sulfonyl}amino)phenyl]sulfinyl}methyl)benzoic acid] — 4.3-fold higher, 2.1 µM
- O=C(CCSc1ccc(Cl)cc1NS(=O)(=O)c1ccc(Cl)c(C(F)(F)F)c1)N1CCCC1 [4-chloro-N-(5-chloro-2-{[3-oxo-3-(pyrrolidin-1-yl)propyl]sulfanyl}phenyl)-3-(trifluoromethyl)benzenesulfonamide] — 4.7-fold higher, 2.29 µM
- O=C(CC[S+]([O-])c1ccc(Cl)cc1NS(=O)(=O)c1ccc(Cl)c(C(F)(F)F)c1)N1CCCC1 (stereo not drawn) [4-chloro-N-(5-chloro-2-{[3-oxo-3-(pyrrolidin-1-yl)propyl]sulfinyl}phenyl)-3-(trifluoromethyl)benzenesulfonamide] — 3.4-fold higher, 1.66 µM
- CC(=O)Nc1cccc(CSc2ccc(Cl)cc2N(C(C)=O)S(=O)(=O)c2cc3ccccc3o2)c1 [N-(2-{[3-(acetylamino)benzyl]sulfanyl}-5-chlorophenyl)-N-(1-benzofuran-2-ylsulfonyl)acetamide] — 3.3-fold higher, 1.61 µM
- N#Cc1ccc(NS(=O)(=O)c2cc3ccccc3o2)c(SCc2ccccc2)c1 [N-[2-(benzylsulfanyl)-4-cyanophenyl]-1-benzofuran-2-sulfonamide] — within 1.5-fold, 0.604 µM
- O=S(=O)(Nc1cc(Cl)ccc1SCc1ccccc1)c1ccc(Cl)c(C(F)(F)F)c1 [N-[2-(benzylsulfanyl)-5-chlorophenyl]-4-chloro-3-(trifluoromethyl)benzenesulfonamide] — 2.6-fold higher, 1.28 µM
- N#Cc1ccc(NS(=O)(=O)c2cc3ccccc3o2)c([S+]([O-])Cc2ccccc2)c1 (stereo not drawn) [N-[2-(benzylsulfinyl)-4-cyanophenyl]-1-benzofuran-2-sulfonamide] — 2.1-fold higher, 1.03 µM
- O=S(=O)(Nc1cc(Cl)ccc1[S+]([O-])Cc1ccccc1)c1ccc(Cl)c(C(F)(F)F)c1 (stereo not drawn) [N-[2-(benzylsulfinyl)-5-chlorophenyl]-4-chloro-3-(trifluoromethyl)benzenesulfonamide] — within 1.5-fold, 0.493 µM
- N#Cc1ccc(NS(=O)(=O)c2cc3ccccc3o2)c(S(=O)(=O)Cc2ccccc2)c1 [N-[2-(benzylsulfonyl)-4-cyanophenyl]-1-benzofuran-2-sulfonamide] — 1.8-fold higher, 0.888 µM
- O=S(=O)(Cc1ccccc1)c1ccc(Cl)cc1NS(=O)(=O)c1ccc(Cl)c(C(F)(F)F)c1 [N-[2-(benzylsulfonyl)-5-chlorophenyl]-4-chloro-3-(trifluoromethyl)benzenesulfonamide] — within 1.5-fold, 0.538 µM
- CS(=O)(=O)Nc1cccc(CSc2ccc(Cl)cc2NS(=O)(=O)c2cc3ccccc3o2)c1 [N-[5-chloro-2-({3-[(methylsulfonyl)amino]benzyl}sulfanyl)phenyl]-1-benzofuran-2-sulfonamide] — 2.6-fold higher, 1.28 µM
- CS(=O)(=O)Nc1cccc(C[S+]([O-])c2ccc(Cl)cc2NS(=O)(=O)c2cc3ccccc3o2)c1 (stereo not drawn) [N-[5-chloro-2-({3-[(methylsulfonyl)amino]benzyl}sulfinyl)phenyl]-1-benzofuran-2-sulfonamide] — 5-fold higher, 2.42 µM
- CS(=O)(=O)Nc1cccc(CS(=O)(=O)c2ccc(Cl)cc2NS(=O)(=O)c2cc3ccccc3o2)c1 [N-[5-chloro-2-({3-[(methylsulfonyl)amino]benzyl}sulfonyl)phenyl]-1-benzofuran-2-sulfonamide] — 14-fold higher, 6.57 µM
- O=C1CCc2cc(NS(=O)(=O)c3cc4ccccc4o3)c(S(=O)(=O)Cc3ccccc3)cc21 [N-[6-(benzylsulfonyl)-1-oxo-2,3-dihydro-1H-inden-5-yl]-1-benzofuran-2-sulfonamide] — 4.6-fold higher, 2.24 µM
- CC(=O)Nc1cccc(CSc2ccc(Cl)cc2NS(=O)(=O)c2cc3ccccc3o2)c1 [N-{3-[({2-[(1-benzofuran-2-ylsulfonyl)amino]-4-chlorophenyl}sulfanyl)methyl]phenyl}acetamide] — within 1.5-fold, 0.379 µM
- CC(=O)Nc1cccc(CS(=O)(=O)c2ccc(Cl)cc2NS(=O)(=O)c2cc3ccccc3o2)c1 [N-{3-[({2-[(1-benzofuran-2-ylsulfonyl)amino]-4-chlorophenyl}sulfonyl)methyl]phenyl}acetamide] — 1.8-fold higher, 0.854 µM
